One test has as its system insulin. The test is described as follows: Suppression of growth hormone, glucagon and insulin (arginine-stimulated, nembutal rats): insulin. In kind it is in vivo. To be noted: arginine challenge. As to the method:
(§1) Albino male rats are arranged in three groups (nine rats/group) and injected i.p. with nembutal at 50mg/kg. 15 minutes after the nembutal injection they are injected s.c. according to group with (a) test compound, typically 10-2000 μg/kg.; (b) SRIF 200 μg/kg.; or (c) physiological saline. 10 minutes later 0.5 ml. of arginine (300 mg/ml., pH 7.2) is injected into the heart. The rats are decapitated 5 minutes after receiving the arginine, and the blood is collected into Trasylol-EDTA. Appropriate aliquots are then assayed for growth hormone, glucagon and insulin. […] Comparisons between control and experimental values are statistically evaluated by the analysis of variants method and statistical significance (p) at 0.05 or lower is used as the index of activity.

A further test concerns glucagon. Nature of the test: Suppression of growth hormone, glucagon and insulin (arginine-stimulated, nembutal rats): glucagon. In kind it is in vivo. To be noted: arginine challenge. As to the method: as §1
For the next test, the system named is growth hormone. Nature of the test: Suppression of growth hormone, glucagon and insulin (arginine-stimulated, nembutal rats): GH. In kind it is in vivo. As to the method:
as §1

Another test deals with growth hormone (GH). The test is described as follows: Suppression of growth hormone (duration of activity after sc injection). The class given is in vivo, rats. As for the experimental part: A subcutaneous (sc) injection of peptide solubilized or suspended in physiological saline, is given to Charles River CD® nonfasted male rats. Matched saline control solution sc injected rats serve as control animals so that every experimental rat is paired with a control rat. The rats are kept in separate cages and 20 minutes before the end of the test time period they are given an intraperitoneal (i.p.) injection of Nembutal® at a dose of 50 mg/kg. Blood samples are obtained by cardiac puncture and the plasma separated for the radioimmunoassay of growth hormone (GH) concentration (ng/ml.). Time periods after injection of 2, 4, 5, and 6 hours are generally used to test the duration of the activity of the peptide to suppress circulating peripheral GH levels. Comparisons between control and experimental GH values at each time are evaluated by the Student "t" test and statistical significance (p) at the 0.05 level or lower is used as the index of activity.

Where [1] appears, read: 200 μg/kg. s.c., arginine challenge (table 5).
The mark [2] stands for this setting: 100 μg/kg. s.c., arginine challenge (table 5).

Structures are written as SMILES. Values joined by “and” are separate entries in the source; they are usually repeats but may differ in a detail not shown here. Identical values can stand only once. Where a SMILES comes first, the peptide text is derived from it. Bridges are numbered along the chain shown (N, C = ends). [ ]: non-standard residue; d: D form.

Consider `C[C@@H](O)[C@@H]1NC(=O)[C@H](Cc2ccccc2)NC(=O)[C@H]([C@@H](C)O)NC(=O)[C@H](CCCCN)NC(=O)[C@@H](Cc2c[nH]c3ccccc23)NC(=O)[C@H](Cc2ccccc2)NC(=O)[C@H](Cc2ccccc2)NC(=O)[C@@H](Cc2c[nH]c3ccccc23)NC(=O)[C@@H](Cc2ccc(O)cc2)NC(=O)[C@@H](N)CSSC[C@@H](C(=O)O)NC(=O)[C@H](CO)NC1=O` [B, L-Cysteinyl-D-Tyrosyl-D-Tryptophyl-L-Phenylalanyl-L-Phenylalanyl-D-Tryptophyl-L-Lysyl-L-Threonyl-L-Phenylalanyl-L-Threonyl-L-Seryl-L-Cysteine Cyclic (1-12)-Disulfide] (H-C[dY][dW]FF[dW]KTFTSC-OH; disulfide 1-12), for which the Insulin with insulin (10 μg/kg. s.c.) is listed as 162 ± 13 μU/ml; in the test with insulin (100 μg/kg. s.c.) it was 170 ± 15 μU/ml; in the test on insulin (200 μg/kg. s.c.), 239 ± 17 μU/ml; with insulin (300 μg/kg. s.c.) it was 153 ± 9 μU/ml; in the test with insulin (500 μg/kg. s.c.) it was 116 ± 8 μU/ml. In addition, the Glucagon was 36 ± 4 pg/mL with glucagon (10 μg/kg. s.c.); 5 ± 1 pg/mL in the test with glucagon (100 μg/kg. s.c.); 44 ± 9 pg/mL in the test on glucagon (200 μg/kg. s.c.); 38 ± 8 pg/mL in the test with glucagon (300 μg/kg. s.c.); 18 ± 4 pg/mL with glucagon (500 μg/kg. s.c.). The GH with growth hormone (10 μg/kg. s.c., 15 minutes after dose, arginine challenge) was 125 ± 26 ng/mL; with growth hormone (100 μg/kg. s.c., 15 minutes after dose, arginine challenge) it was 43 ± 7 ng/mL; with growth hormone (500 μg/kg. s.c., 15 minutes after dose, arginine challenge), 38 ± 6 ng/mL. Further, the “plasma growth hormone (GH) concentration, 2 Hr.” value with growth hormone (GH) (1 mg/kg. sc, nonfasted male rats, 2 Hr. after injection) amounted to 111 ± 14 ng/mL. Further, the “plasma growth hormone (GH) concentration, 4 Hr.” value in the test with growth hormone (GH) (1 mg/kg. sc, nonfasted male rats, 4 Hr. after injection) amounted to 67 ± 14 ng/mL. For the same compound, the “plasma growth hormone (GH) concentration, 5 Hr.” value in the test with growth hormone (GH) (1 mg/kg. sc, nonfasted male rats, 5 Hr. after injection) turned out to be 151 ± 18 ng/mL. In the test with growth hormone (GH) (1 mg/kg. sc, nonfasted male rats, second 2 Hr. column of table 3), the “plasma growth hormone (GH) concentration, 2 Hr. (second column headed 2 Hr.)” value was found to be 133 ± 34 ng/mL.

`C[C@@H](O)[C@@H]1NC(=O)[C@H](Cc2ccccc2)NC(=O)[C@H]([C@@H](C)O)NC(=O)[C@H](CCCCN)NC(=O)[C@@H](Cc2c[nH]c3ccccc23)NC(=O)[C@H](Cc2ccccc2)NC(=O)[C@H](Cc2ccccc2)NC(=O)[C@@H](Cc2ccc(O)cc2)NC(=O)[C@@H](Cc2c[nH]cn2)NC(=O)[C@@H](N)CSSC[C@@H](C(=O)O)NC(=O)[C@H](CO)NC1=O` [C, L-Cysteinyl-D-Histidyl-D-Tyrosyl-L-Phenylalanyl-L-Phenylalanyl-D-Tryptophyl-L-Lysyl-L-Threonyl-L-Phenylalanyl-L-Threonyl-L-Seryl-L-Cysteine Cyclic (1-12)-Disulfide] (H-C[dH][dY]FF[dW]KTFTSC-OH; disulfide 1-12): in the test with insulin (10 μg/kg. s.c.), the Insulin worked out at 252 ± 41 μU/ml. Also, the Insulin with insulin (200 μg/kg. s.c.) is 254 ± 31 μU/ml. and 273 ± 36 μU/ml. For the same compound, the Glucagon with glucagon (10 μg/kg. s.c.) is 165 ± 13 pg/mL. For the same compound, in the test on growth hormone (10 μg/kg. s.c., arginine challenge (table 5)), the GH was found to be 149 ± 23. In addition, in the test with growth hormone (GH) (1000 μg/kg. sc, rats), the “GH, 2 Hours” value turned out to be 34 ± 1 ng/mL; the “GH, 4 Hours” value is 33 ± 2 ng/mL; the “GH, 5 Hours” value came out at 51 ± 8 ng/mL; the “GH, 6 Hours” value turned out to be 36 ± 3 ng/mL. In addition, in the test with growth hormone (GH) (1000 μg/kg. sc, rats, 7 hours), the “GH, 7 Hours” value amounted to 37 ± 5 ng/mL. Besides, in the test on growth hormone (GH) (1000 μg/kg. sc, rats, 8 hours), the “GH, 8 Hours” value came to 37 ± 6 ng/mL.

Take `C[C@@H](O)[C@@H]1NC(=O)[C@H](CCCCN)NC(=O)[C@@H](Cc2c[nH]c3ccccc23)NC(=O)[C@H](Cc2ccccc2)NC(=O)[C@H](Cc2ccccc2)NC(=O)[C@@H](Cc2c[nH]c3ccccc23)NC(=O)[C@@H](Cc2ccc(O)cc2)NC(=O)[C@@H](N)CSSC[C@H](C(=O)O)NC(=O)[C@H](CO)NC(=O)[C@H]([C@@H](C)O)NC(=O)[C@H](Cc2ccccc2)NC1=O` [Compound I, L-Cysteinyl-D-Tyrosyl-D-Tryptophyl-L-Phenylalanyl-L-Phenylalanyl-D-Tryptophyl-L-Lysyl-L-Threonyl-L-Phenylalanyl-L-Threonyl-L-Seryl-D-Cysteine Cyclic (1-12)-Disulfide] (H-C[dY][dW]FF[dW]KTFTS[dC]-OH; disulfide 1-12): the Insulin in the test on insulin (200 μg/kg. s.c.) is 236 ± 27 μU/ml. Besides, the Glucagon in the test on glucagon (200 μg/kg. s.c.) was found to be 13 ± 2 pg/mL. The same compound yielded a GH in the test with growth hormone (setting [1]) of 57 ± 14. Further, in the test on growth hormone (GH) (1000 μg/kg. sc, rats), the “GH, 2 Hours” value stood at 49 ± 5 ng/mL and the “GH, 4 Hours” value amounted to 86 ± 11 ng/mL.

Turning to `C[C@@H](O)[C@@H]1NC(=O)[C@H](Cc2ccccc2)NC(=O)[C@H]([C@@H](C)O)NC(=O)[C@H](CCCCN)NC(=O)[C@@H](Cc2c[nH]c3ccccc23)NC(=O)[C@H](Cc2ccccc2)NC(=O)[C@H](Cc2ccccc2)NC(=O)[C@@H](Cc2c[nH]c3ccccc23)NC(=O)[C@@H](CCCNC(=N)N)NC(=O)[C@@H](N)CSSC[C@@H](C(=O)O)NC(=O)[C@H](CO)NC1=O` [D, L-Cysteinyl-D-Arginyl-D-Tryptophyl-L-Phenylalanyl-L-Phenylalanyl-D-Tryptophyl-L-Lysyl-L-Threonyl-L-Phenylalanyl-L-Threonyl-L-Seryl-L-Cysteine Cyclic (1-12)-Disulfide] (H-C[dR][dW]FF[dW]KTFTSC-OH; disulfide 1-12), the Insulin in the test with insulin (100 μg/kg. s.c.) was found to be 35 ± 2 μU/ml. Besides, in the test with glucagon (100 μg/kg. s.c.), the Glucagon was 53 ± 9 pg/mL. The GH with growth hormone (setting [2]) was determined as 21 ± 2. Further, in the test with growth hormone (GH) (1000 μg/kg. sc, rats), the “GH, 2 Hours” value stood at 28 ± 3 ng/mL and the “GH, 4 Hours” value is 11 ± 2 ng/mL.

In the test on insulin (200 μg/kg. s.c.), `C[C@@H](O)[C@@H]1NC(=O)[C@H](Cc2ccccc2)NC(=O)[C@H]([C@@H](C)O)NC(=O)[C@H](CCCCN)NC(=O)[C@@H](Cc2c[nH]c3ccccc23)NC(=O)[C@H](Cc2ccccc2)NC(=O)[C@H](Cc2ccccc2)NC(=O)[C@@H](Cc2c[nH]cn2)NC(=O)[C@@H](Cc2c[nH]cn2)NC(=O)[C@@H](N)CSSC[C@@H](C(=O)O)NC(=O)[C@H](CO)NC1=O` [E, L-Cysteinyl-D-Histidyl-D-Histidyl-L-Phenylalanyl-L-Phenylalanyl-D-Tryptophyl-L-Lysyl-L-Threonyl-L-Phenylalanyl-L-Threonyl-L-Seryl-L-Cysteine Cyclic (1-12)-Disulfide] (H-C[dH][dH]FF[dW]KTFTSC-OH; disulfide 1-12) registered an Insulin of 182 ± 18 μU/ml. In the test with glucagon (200 μg/kg. s.c.), this compound returned a Glucagon of 29 ± 12 pg/mL. In addition, the GH in the test with growth hormone (setting [1]) was 34 ± 3. In addition, in the test with growth hormone (GH) (1000 μg/kg. sc, rats), the “GH, 2 Hours” value was determined as 36 ± 16 ng/mL and the “GH, 4 Hours” value is 45 ± 10 ng/mL.

With `C[C@@H](O)[C@@H]1NC(=O)[C@H](CCCCN)NC(=O)[C@@H](Cc2c[nH]c3ccccc23)NC(=O)[C@H](Cc2ccccc2)NC(=O)[C@H](Cc2ccccc2)NC(=O)[C@@H](CCCNC(=N)N)NC(=O)[C@@H](Cc2ccc(O)cc2)NC(=O)[C@@H](N)CSSC[C@H](C(=O)O)NC(=O)[C@H](CO)NC(=O)[C@H]([C@@H](C)O)NC(=O)[C@H](Cc2ccccc2)NC1=O` [F, L-Cysteinyl-D-Tryrosyl-D-Arginyl-L-Phenylalanyl-L-Phenylalanyl-D-Tryptophyl-L-Lysyl-L-Threonyl-L-Phenylalanyl-L-Threonyl-L-Seryl-D-Cysteine Cyclic (1-12)-Disulfide] (H-C[dY][dR]FF[dW]KTFTS[dC]-OH; disulfide 1-12), in the test with insulin (100 μg/kg. s.c.), the Insulin came to 103 ± 24 μU/ml. For the same compound, in the test on glucagon (100 μg/kg. s.c.), the Glucagon was determined as 24 ± 5 pg/mL. In the test on growth hormone (setting [2]), this compound came in with a GH of 11 ± 3. In the test on growth hormone (GH) (1000 μg/kg. sc, rats), the “GH, 2 Hours” value amounted to 113 ± 34 ng/mL and the “GH, 4 Hours” value worked out at 99 ± 11 ng/mL.

For the compound `CC(C)C[C@H]1NC(=O)[C@@H](N)CSSC[C@@H](C(=O)O)NC(=O)[C@H](CO)NC(=O)[C@H]([C@@H](C)O)NC(=O)[C@H](Cc2ccccc2)NC(=O)[C@H]([C@@H](C)O)NC(=O)[C@H](CCCCN)NC(=O)[C@@H](Cc2c[nH]c3ccccc23)NC(=O)[C@H](Cc2ccccc2)NC(=O)[C@H](Cc2ccccc2)NC(=O)[C@@H](Cc2ccc(O)cc2)NC1=O` [G, L-Cysteinyl-D-Leucyl-D-Tyrosyl-L-Phenylalanyl-L-Phenylalanyl-D-Trypotophyl-L-Lysyl-L-Threonyl-L-Phenylalanyl-L-Threonyl-L-Seryl-L-Cysteine Cyclic (1-12)-Disulfide] (H-C[dL][dY]FF[dW]KTFTSC-OH; disulfide 1-12), in the test with insulin (100 μg/kg. s.c.), the Insulin was determined as 218 ± 44 μU/ml. The compound further came in with a Glucagon in the test on glucagon (100 μg/kg. s.c.) of 28 ± 16 pg/mL. This compound yielded a GH in the test on growth hormone (setting [2]) of 29 ± 16. Besides, in the test with growth hormone (GH) (1000 μg/kg. sc, rats), the “GH, 2 Hours” value was determined as 84 ± 11 ng/mL; the “GH, 4 Hours” value was 94 ± 23 ng/mL; the “GH, 5 Hours” value was 93 ± 30 ng/mL; the “GH, 6 Hours” value came to 72 ± 68 ng/mL.

Values taken from US4122077A, “Somatostatin analogs” (American Home Products Corporation, priority 1977, dated 1978).
